Earlier results as cited in article PMC4010828 (mBio, 2014).

Test system: sensitive E. coli cells

## microcin C (MRTGNAN; C-terminal adenylate, aminopropyl phosphoramidate) [McC]
  Concentration that inhibits the growth of sensitive E. coli cells: low micromolar concentrations
